Measured values from PMC12169614, “Exploring Long Arm Amide-Linked Side Chains in the Design of Antifungal Azole Inhibitors of Sterol 14α-Demethylase (CYP51)” (Journal of Medicinal Chemistry, 2025).

Experiments:
Y2301 OE ScCYP51 Y140F = test: MIC80 determination, strain Y2301; type: cell-based, S. cerevisiae; details: Saccharomyces cerevisiae
How it was run: (§1)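 Seed at OD600 0.005 (1.5 × 10^4 CFU); shake at 200 rpm, 30 °C; stop at 48 h (S. cerevisiae) or 24 h (C. albicans); measure OD600 to derive MIC80.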

Y2513 OE ScCYP51 Y140H = test: MIC80 determination, strain Y2513; type: cell-based, S. cerevisiae; details: Saccharomyces cerevisiae
How it was run: as §1

Y71 SC5314 = test: MIC80 determination, C. albicans clinical isolate Y71 SC5314; type: cell-based; details: Candida albicans
How it was run: as §1

Y2721 OE CpCYP51 = test: MIC80 determination, strain Y2721; type: cell-based, S. cerevisiae
How it was run: as §1

Y2374 OE CgCYP51 = test: MIC80 determination, strain Y2374; type: cell-based, S. cerevisiae; details: Saccharomyces cerevisiae
How it was run: as §1

Y433 OE CgCDR1 = test: MIC80 determination, strain Y433; type: cell-based, S. cerevisiae; details: Saccharomyces cerevisiae
How it was run: as §1

Y2767 OE CauCYP51 = test: MIC80 determination, strain Y2767; type: cell-based, S. cerevisiae
Method: (§2) Cells were seeded at an OD600 nm of 0.005 (1.5 × 10^4 CFU), and the plates were incubated at 30 °C with shaking at 200 rpm for 48 h for S. cerevisiae strains and 24 h for C. albicans . Cell growth was assessed by measuring the OD600 nm using a Synergy 2 multimode plate reader (BioTek Instruments, VT, USA). Each MIC80 was determined using triplicate measurements for pools of 4 clones of each strain in three separate experiments.

Y2768 OE CauCYP51 Y132F = test: MIC80 determination, strain Y2768; type: cell-based, S. cerevisiae
Method: as §2

Y2765 OE CauMDR1 = test: MIC80 determination, strain Y2765; type: cell-based, S. cerevisiae; details: Saccharomyces cerevisiae
Method: as §2

Y2766 OE CauCDR1 = test: MIC80 determination, strain Y2766; type: cell-based, S. cerevisiae; details: Saccharomyces cerevisiae
Method: as §2

[1] = tested on: Y2300 ScCYP51 overexpressed; test: Agarose (disk) diffusion assay, strain Y2300; type: cell-based, S. cerevisiae; details: 10 nmol/disk, 30 °C, 48 h
Source text: (§3) Final compounds were screened as racemic mixtures using agarose diffusion assays to visualize their inhibitory activity against a panel of recombinant S. cerevisiae strains i.e., S. cerevisiae strains expressing control levels of wild-type CYP51 (ScCYP51), overexpressed wild-type ScCYP51, overexpressed azole-resistant ScCYP51 Y140F/H mutations and overexpressed C. albicans efflux pumps MDR1a or CDR1B (Figure and Table S1).
(§4) The susceptibilities of S. cerevisiae and Candida species strains to azole compounds were observed as zones of growth inhibition in agarose diffusion assays. The disk diffusion assays were carried out as described by Keniya et al. Complete supplement mixture (CSM) agarose (0.6% agarose [wt/vol]; 20 mL of synthetic defined medium (SD); pH 6.8–7) was solidified in a rectangular Petri dish which was overlaid with CSM agarose (0.6% [wt/vol]; 5 mL; pH 6.8–7) seeded with yeast cells at an optical density (OD600) of 0.008 (118,000 cells per 1 mL of overlay). Azole compounds (10 nmol/disk) were applied to sterile BBL paper disks (Becton Dickinson Co., Sparks, MD) and placed on solidified overlays. Cell growth was assessed after incubation at 30 °C for 48 h.

[2] = tested on: Y2301 ScCYP51 Y140F mutant; test: Agarose (disk) diffusion assay, strain Y2301; type: cell-based, S. cerevisiae; details: 10 nmol/disk, 30 °C, 48 h
Source text: as §3, §4

[3] = tested on: Y525 MFS efflux pump CaMDR1a overexpressed; test: Agarose (disk) diffusion assay, strain Y525; type: cell-based, S. cerevisiae; details: 10 nmol/disk, 30 °C, 48 h
Source text: as §3, §4

[4] = tested on: Y570 ABC efflux pump CaCDR1B overexpressed; test: Agarose (disk) diffusion assay, strain Y570; type: cell-based, S. cerevisiae; details: 10 nmol/disk, 30 °C, 48 h
Source text: as §3, §4

wild-type CaCYP51 = wild-type CaCYP51 (Candida albicans, UniProt P10613); test: Reconstituted CYP51 activity assay, wild type; type: biochemical, C. albicans; details: 1 μM CaCyp51, 50 μM lanosterol; duplicate, mean ± SD
wild-type CaCYP51, sequence (P10613 whole entry): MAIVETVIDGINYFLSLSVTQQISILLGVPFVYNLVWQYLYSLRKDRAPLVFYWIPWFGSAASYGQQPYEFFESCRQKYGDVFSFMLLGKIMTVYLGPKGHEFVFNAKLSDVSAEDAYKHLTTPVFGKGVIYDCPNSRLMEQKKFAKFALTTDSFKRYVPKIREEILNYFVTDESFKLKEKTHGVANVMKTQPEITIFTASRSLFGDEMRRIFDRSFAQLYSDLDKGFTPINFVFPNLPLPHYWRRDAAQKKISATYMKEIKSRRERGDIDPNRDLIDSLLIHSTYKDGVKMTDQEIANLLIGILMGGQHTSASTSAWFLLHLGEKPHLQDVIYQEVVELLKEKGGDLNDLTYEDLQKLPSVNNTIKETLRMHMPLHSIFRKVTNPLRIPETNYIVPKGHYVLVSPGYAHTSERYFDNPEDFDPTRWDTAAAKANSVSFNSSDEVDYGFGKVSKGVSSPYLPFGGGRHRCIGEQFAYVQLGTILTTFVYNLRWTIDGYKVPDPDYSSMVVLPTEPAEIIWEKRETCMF
Method: (§5) The reconstituted CYP51 assay previously described contained 1 μM CaCyp51, 2 μM Homo sapiens cytochrome P450 reductase and 50 μM lanosterol in a final volume of 500 μL. After the addition of azole in DMSO (2.5 μL), reactions were incubated at 37 °C for 10 min prior to initiation by the addition of 100 μL 20 mM β-NADPH-Na4. Sterol substrates and products were extracted with ethyl acetate, derivatized with N,O-bis(trimethylsilyl)-trifluoroacetamide (BSTFA)–trimethylchlorosilane (TMCS) (99:1) in the presence of anhydrous pyridine, and analyzed by GC/MS as described previously. IC50 determinations were performed in duplicate. Nonlinear regression of inhibitor concentration vs normalized response was calculated by GraphPad Prism 10.4.0 for Windows (GraphPad Software, Boston, Massachusetts, USA, www.graphpad.com).

CaCYP51 Y132F = CaCYP51 Y132F (Candida albicans, UniProt P10613, Y132F); test: Reconstituted CYP51 activity assay, Y132F; type: biochemical, C. albicans; details: 1 μM CaCyp51, 50 μM lanosterol; duplicate, mean ± SD
CaCYP51 Y132F, sequence (P10613 whole entry Y132F): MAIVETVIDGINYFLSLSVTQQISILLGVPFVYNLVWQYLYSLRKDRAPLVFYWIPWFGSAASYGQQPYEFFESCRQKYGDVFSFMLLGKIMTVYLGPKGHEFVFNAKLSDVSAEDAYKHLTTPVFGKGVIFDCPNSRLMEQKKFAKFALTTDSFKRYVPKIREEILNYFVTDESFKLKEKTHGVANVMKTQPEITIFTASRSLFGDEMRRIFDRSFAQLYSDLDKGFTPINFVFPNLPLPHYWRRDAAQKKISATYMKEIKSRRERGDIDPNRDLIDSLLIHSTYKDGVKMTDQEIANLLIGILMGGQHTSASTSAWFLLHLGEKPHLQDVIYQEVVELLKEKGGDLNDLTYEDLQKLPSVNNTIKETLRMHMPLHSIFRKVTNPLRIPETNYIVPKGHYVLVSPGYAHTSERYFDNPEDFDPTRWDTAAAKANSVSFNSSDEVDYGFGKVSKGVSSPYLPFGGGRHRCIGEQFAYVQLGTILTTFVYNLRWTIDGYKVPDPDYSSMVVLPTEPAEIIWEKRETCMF
Method: as §5

CaCYP51 Y132H + K143R = CaCYP51 Y132H + K143R (Candida albicans, UniProt P10613, K143R/Y132H); test: Reconstituted CYP51 activity assay, Y132H + K143R; type: biochemical, C. albicans; details: 1 μM CaCyp51, 50 μM lanosterol; duplicate, mean ± SD
CaCYP51 Y132H + K143R, sequence (P10613 whole entry Y132H/K143R): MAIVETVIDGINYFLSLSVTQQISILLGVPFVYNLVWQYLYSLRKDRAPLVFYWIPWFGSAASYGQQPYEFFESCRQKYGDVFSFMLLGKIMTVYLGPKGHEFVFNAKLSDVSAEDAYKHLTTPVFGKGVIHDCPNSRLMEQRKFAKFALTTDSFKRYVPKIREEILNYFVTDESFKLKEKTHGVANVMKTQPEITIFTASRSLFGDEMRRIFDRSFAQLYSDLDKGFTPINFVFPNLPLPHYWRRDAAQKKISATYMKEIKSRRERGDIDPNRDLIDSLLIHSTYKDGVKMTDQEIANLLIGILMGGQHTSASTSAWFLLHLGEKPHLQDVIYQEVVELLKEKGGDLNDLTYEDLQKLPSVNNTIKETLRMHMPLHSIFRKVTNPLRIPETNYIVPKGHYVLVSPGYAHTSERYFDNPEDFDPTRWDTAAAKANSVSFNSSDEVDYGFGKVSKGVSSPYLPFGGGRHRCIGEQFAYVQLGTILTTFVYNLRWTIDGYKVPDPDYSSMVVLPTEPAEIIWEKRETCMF
Method: as §5

CYP1A2 = CYP1A2 (Homo sapiens, UniProt P05177); test: CYP IC50 profile, CYP1A2; type: biochemical; details: human liver drug metabolizing enzyme; read-out: CYP IC50 1A2
CYP1A2, sequence (P05177 whole entry): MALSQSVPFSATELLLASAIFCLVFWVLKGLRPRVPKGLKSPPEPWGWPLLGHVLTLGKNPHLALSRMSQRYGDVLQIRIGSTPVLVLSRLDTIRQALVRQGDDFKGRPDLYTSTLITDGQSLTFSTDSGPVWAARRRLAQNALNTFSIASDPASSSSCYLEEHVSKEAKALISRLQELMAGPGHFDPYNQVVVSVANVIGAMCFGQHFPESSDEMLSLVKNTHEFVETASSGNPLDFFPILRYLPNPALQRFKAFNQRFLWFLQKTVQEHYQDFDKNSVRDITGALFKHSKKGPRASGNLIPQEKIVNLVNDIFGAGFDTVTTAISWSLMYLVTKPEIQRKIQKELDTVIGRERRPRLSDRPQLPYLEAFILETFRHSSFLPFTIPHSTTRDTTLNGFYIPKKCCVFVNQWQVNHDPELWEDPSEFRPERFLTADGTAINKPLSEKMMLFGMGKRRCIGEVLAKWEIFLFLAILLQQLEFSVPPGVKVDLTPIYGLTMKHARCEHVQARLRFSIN

CYP2C9 = CYP2C9 (Homo sapiens, UniProt P11712); test: CYP IC50 profile, CYP2C9; type: biochemical; details: human liver drug metabolizing enzyme; read-out: CYP IC50 2C9
CYP2C9, sequence (P11712 whole entry): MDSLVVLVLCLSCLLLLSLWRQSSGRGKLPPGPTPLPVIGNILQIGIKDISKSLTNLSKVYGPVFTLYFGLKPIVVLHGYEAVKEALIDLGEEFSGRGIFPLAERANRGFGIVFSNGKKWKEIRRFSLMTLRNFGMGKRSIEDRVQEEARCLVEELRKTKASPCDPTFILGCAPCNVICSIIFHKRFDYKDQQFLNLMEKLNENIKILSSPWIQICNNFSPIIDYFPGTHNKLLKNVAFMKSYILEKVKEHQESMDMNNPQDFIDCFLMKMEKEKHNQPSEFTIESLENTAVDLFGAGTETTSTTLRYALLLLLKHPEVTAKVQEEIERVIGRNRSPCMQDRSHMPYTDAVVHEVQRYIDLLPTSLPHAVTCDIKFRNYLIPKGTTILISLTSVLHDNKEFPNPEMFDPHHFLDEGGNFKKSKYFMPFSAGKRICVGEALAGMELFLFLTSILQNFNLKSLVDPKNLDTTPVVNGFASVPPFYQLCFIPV

CYP2C19 = CYP2C19 (Homo sapiens, UniProt P33261); test: CYP IC50 profile, CYP2C19; type: biochemical; details: human liver drug metabolizing enzyme; read-out: CYP IC50 2C19
CYP2C19, sequence (P33261 whole entry): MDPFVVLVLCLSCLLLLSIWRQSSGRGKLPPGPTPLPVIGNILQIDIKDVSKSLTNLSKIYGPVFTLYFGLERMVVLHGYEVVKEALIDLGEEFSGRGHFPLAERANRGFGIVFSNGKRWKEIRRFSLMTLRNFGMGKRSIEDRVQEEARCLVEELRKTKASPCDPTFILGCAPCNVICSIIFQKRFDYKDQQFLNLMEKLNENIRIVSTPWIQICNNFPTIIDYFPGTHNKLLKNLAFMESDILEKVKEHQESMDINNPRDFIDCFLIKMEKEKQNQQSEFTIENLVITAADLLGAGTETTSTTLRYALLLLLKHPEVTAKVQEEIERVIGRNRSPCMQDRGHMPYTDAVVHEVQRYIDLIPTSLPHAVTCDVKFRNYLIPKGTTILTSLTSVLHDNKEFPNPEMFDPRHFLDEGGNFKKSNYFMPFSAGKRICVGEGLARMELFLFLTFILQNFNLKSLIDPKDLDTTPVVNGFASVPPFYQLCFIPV

CYP2D6 = CYP2D6 (Homo sapiens, UniProt P10635); test: biochemical; details: human liver drug metabolizing enzyme; read-out: CYP IC50 2D6
CYP2D6, sequence (P10635 whole entry): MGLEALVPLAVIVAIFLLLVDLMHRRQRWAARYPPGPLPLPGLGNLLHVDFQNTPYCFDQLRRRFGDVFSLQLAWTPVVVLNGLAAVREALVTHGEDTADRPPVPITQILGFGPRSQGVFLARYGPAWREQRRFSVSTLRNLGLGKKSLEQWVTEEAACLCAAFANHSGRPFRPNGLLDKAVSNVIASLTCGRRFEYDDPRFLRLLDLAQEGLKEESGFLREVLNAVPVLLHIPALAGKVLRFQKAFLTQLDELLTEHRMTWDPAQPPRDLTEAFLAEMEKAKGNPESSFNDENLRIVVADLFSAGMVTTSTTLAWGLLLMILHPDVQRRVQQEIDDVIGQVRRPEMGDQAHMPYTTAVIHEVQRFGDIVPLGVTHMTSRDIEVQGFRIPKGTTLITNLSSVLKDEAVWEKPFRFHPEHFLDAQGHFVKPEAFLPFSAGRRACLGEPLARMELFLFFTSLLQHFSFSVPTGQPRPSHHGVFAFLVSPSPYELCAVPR

With `O=C(NCC(O)(Cn1cncn1)c1ccc(F)cc1F)c1ccc(-c2ccc(OC(F)(F)F)cc2)cc1` (stereo not shown) [Compound 22, N-(2-(2,4-Difluorophenyl)-2-hydroxy-3-(1H-1,2,4-triazol-1-yl)propyl)-4’-(trifluoromethoxy)-[1,1’-biphenyl]-4-carboxamide] the MIC80 (Y2301 OE ScCYP51 Y140F; 48 h, pH 6.8) was 0.093 ± 0.046 µM, the MIC (Y2301 OE ScCYP51 Y140F; read-out: MIC (nM) S. cerevisiae Y2301) was 93 ± 46 nM and the MIC80 (Y2513 OE ScCYP51 Y140H; 48 h, pH 6.8) was 0.078 ± 0.056 µM. It also gave an MIC (Y2513 OE ScCYP51 Y140H; read-out: MIC (nM) S. cerevisiae Y2513) of 78 ± 56 nM, an MIC (Y71 SC5314; SC5314, supplement csv) of 40 nM and an MIC80 (Y71 SC5314; C. albicans clinical isolate Y71 SC5314, pH 7, 24 h) of 0.04 µM. For the same compound, the MIC80 (Y2721 OE CpCYP51; Saccharomyces cerevisiae) was 0.099 µM, the MIC (Y2721 OE CpCYP51; read-out: MIC (nM) C. parapsilosis model Y2721) was 99 nM and the MIC80 (Y2374 OE CgCYP51) was 0.101 µM. For the same compound, the MIC (Y2374 OE CgCYP51; read-out: MIC (nM) C. glabrate model Y2374) was 101 nM, the MIC80 (Y433 OE CgCDR1) was 5.85 µM and the MIC (Y2767 OE CauCYP51; Candidozyma auris, read-out: MIC (nM) C. auris model Y2767) was 110 ± 10 nM. For the same compound, the MIC80 (Y2767 OE CauCYP51; Saccharomyces cerevisiae) was 0.11 ± 0.01 µM, the MIC (Y2768 OE CauCYP51 Y132F; Candidozyma auris, read-out: MIC (nM) C. auris model Y2768) was 241 ± 38 nM and the MIC80 (Y2768 OE CauCYP51 Y132F; Saccharomyces cerevisiae) was 0.241 ± 0.038 µM. The MIC80 (Y2765 OE CauMDR1) was 0.059 ± 0.014 µM, the MIC80 (Y2766 OE CauCDR1) was 20.9 µM and the “zone of growth inhibition (inhibitory activity in words)” value (from here on “zone of growth inhibition”) [1] was “visible reduction in potency”. For the same compound, the “zone of growth inhibition” value [2] was “unaffected inhibition zone size”, the “zone of growth inhibition” value [3] was “no effect on its potency” and the “zone of growth inhibition” value [4] was “conferred resistance”. The IC50 (wild-type CaCYP51) was 0.669 µM, the IC50 (CaCYP51 Y132F) was 1.24 ± 0.0379 µM and the IC50 (CaCYP51 Y132H + K143R) was 8.49 ± 1.27 µM. For the same compound, the IC50 (CYP1A2) was 9.33 ± 1.39 µM, the IC50 (CYP2C9) was > 25 µM and the IC50 (CYP2C19) was 14.5 ± 2.23 µM. For the same compound, the IC50 (CYP2D6) was > 25 µM.
